Earlier results as cited in article PMC6650409, “Modeling the binding of diverse ligands within the Ah receptor ligand binding domain” (Scientific Reports, 2019).

What was measured:
mAhR = biological target: T1, mAhR (Mus musculus, UniProt P30561); parameters: method as in PMID 21981577; settings: in words; cited from earlier work
T1 construct: made in house; host or cells: in vitro, Promega TNT Quick coupled transcription/translation rabbit reticulocyte lysate
T1 sequence (P30561 10-848): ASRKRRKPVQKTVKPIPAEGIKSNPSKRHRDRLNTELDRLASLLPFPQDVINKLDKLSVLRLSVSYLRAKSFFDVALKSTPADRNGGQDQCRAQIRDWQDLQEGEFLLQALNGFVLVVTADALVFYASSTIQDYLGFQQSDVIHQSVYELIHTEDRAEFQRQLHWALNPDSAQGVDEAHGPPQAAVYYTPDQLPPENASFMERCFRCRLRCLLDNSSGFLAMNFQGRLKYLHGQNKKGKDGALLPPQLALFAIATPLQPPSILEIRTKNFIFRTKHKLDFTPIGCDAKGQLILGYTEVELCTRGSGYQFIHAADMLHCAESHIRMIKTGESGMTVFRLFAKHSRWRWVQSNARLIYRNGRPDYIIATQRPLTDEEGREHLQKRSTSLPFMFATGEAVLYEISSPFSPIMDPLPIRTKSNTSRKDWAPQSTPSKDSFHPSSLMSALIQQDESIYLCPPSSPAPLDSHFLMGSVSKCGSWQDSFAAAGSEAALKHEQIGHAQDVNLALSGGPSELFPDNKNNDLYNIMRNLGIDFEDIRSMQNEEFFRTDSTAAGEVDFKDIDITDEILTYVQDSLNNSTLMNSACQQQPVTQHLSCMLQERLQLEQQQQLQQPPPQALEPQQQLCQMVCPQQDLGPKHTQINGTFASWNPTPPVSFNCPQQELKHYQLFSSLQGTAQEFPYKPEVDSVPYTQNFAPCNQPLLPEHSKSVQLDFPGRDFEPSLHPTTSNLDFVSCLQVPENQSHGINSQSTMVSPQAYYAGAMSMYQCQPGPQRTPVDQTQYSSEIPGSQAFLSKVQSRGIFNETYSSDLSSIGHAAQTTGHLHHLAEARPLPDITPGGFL

AhR = tested on: AhR; parameters: method as in PMID 21981577; settings: in words; cited from earlier work
[1] = tested on: zebrafish AhR1a (zfAhR1a); settings: cited from earlier work

Structure (SMILES)	displacement of [3H]TCDD specific binding to the mAhR (mAhR)	AhR agonist activity (AhR)	ligand binding to zfAhR1a [1]
O=[N+]([O-])c1cc(C(F)(F)F)ccc1NCc1ccco1 [THS-020]	could competitively displace	acted as AhR agonists	
O=[N+]([O-])c1cc(C(F)(F)F)ccc1NCc1ccsc1 [THS-017]	could competitively displace	acted as AhR agonists	
Cc1oncc1C(=O)Nc1ccc(C(F)(F)F)cc1 [LEFL, Leflunomide]			could still bind and be activated
